Data published in patent US20040185094A1, “Pharmaceutical” (priority 2000, published 2004).
Entries after “also recorded” stand apart in the source; their conditions may differ.

Tests used:
rabbit corpus cavernosum [1] = test: Effect on electrical field stimulation (EFS)-induced relaxation; assay type: cell-based
Description: Male New Zealand White rabbits (2.0-3.0 Kg) were killed by cervical dislocation. The abdominal cavity was opened and the penis excised, starting at the base of the organ at the pelvic bones. The corpus cavernosum was carefully dissected free from the surrounding tunica albuginea—2 tissue strips, approximately 10 mm×3 mm×2 mm in size, were obtained from each penis. The dissection was carried out in Krebs Ringer Solution. Tissues were used on the day of harvest.
The strips of corpus cavernosum and were mounted with surgical suture in 5 ml Wesley & Co. organ baths, and immersed in Kreb's solution maintained at 37° C. and aerated with 5% CO2/95% O2 to attain pH 7.4. The suture was connected to a force displacement transducer (Maywood Instruments Ltd.) and changes in isometric tension were recorded on the DART in vitro computer package. The tissues were put under an initial resting tension of 1.5 g and allowed to equilibrate for 1 hour. During equilibration, the tissues were rinsed at 5 ml/min. The approximate tissue tension after equilibration was 1 g. The tissues were then sensitised to contraction with phenylephrine (PE) (10 μM) and KCl (120 mM), and relaxation with sodium nitroprusside (SNP) (100 μM).
Tissues were bathed in “normal” Kreb's containing 5 μM guanethidine and 1 μM atropine, to block NA release and receptors respectively. EFS was delivered by a MS3 stimulator connected to 2 platinum electrodes which were placed at the top and bottom of the organ chambers. EFS parameters are as follows: Voltage=45-65V, Frequency=2-32 Hz, Pulse Width=0.2 ms, Train Duration=10 s. […] An EFS curve involved stimulating PE-contracted tissues at 2 Hz, 4 Hz, 8 Hz, 16 Hz and 32 Hz, and the degree of relaxation was measured by taking the minimum reading from the maximum reading obtained over a 30 s period. […]
For each dose response curve, the relaxation responses are expressed as a percentage of the PE-induced contraction. […] For EFS response curves, the degree of relaxation was expressed as a percentage of the PE-induced contraction. […]

rabbit corpus cavernosum [2] = test: Direct relaxant effect of EBIO on contracted corpus cavernosum strips in organ baths; assay type: cell-based
rabbit corpus cavernosum [3] = test: Effect of EBIO on cGMP-mediated (SNP-induced) relaxation; assay type: cell-based; details: EBIO 50 μM; SNP dose response
rabbit aorta = test: Selectivity of EBIO for corpus cavernosum over cardiovascular tissue (isolated aorta); assay type: cell-based; details: in vitro
Description: PE (1 μM) or 80 mM K^+ contracted rabbit aorta sections were subjected to half-log unit cumulative additions of EBIO (10 nM-1 mM) with approximately 10 minute intervals between each addition.
For each dose response curve, the relaxation responses are expressed as a percentage of the PE-induced contraction. The mean values±s.e. mean are then plotted against log[drug] concentration. Sigmoidal curves were fitted to the data using Origin curve fitting computer package. For the purpose of curve fitting, the minimum relaxation response is constrained to 0% and the maximum relaxation response is allowed to free fit. For EFS response curves, the degree of relaxation was expressed as a percentage of the PE-induced contraction. These values were then plotted against the frequency of stimulation.

rabbit corpus cavernosum [4] = test: Mechanism of EBIO-induced relaxation (L-NOARG incubation, endothelium removal); assay type: cell-based; details: PE (10 μM) contracted

| Compound | effect of ChTX on EBIO-induced potentiation of EFS-induced relaxation (rabbit corpus cavernosum [1]; ChTX 100 nM with EBIO 50 μM) | attenuation of endogenous NO-mediated (EFS-induced) relaxation (rabbit corpus cavernosum [1]; ChTX 100 nM, across the frequency range) | effect on blood pressure in vivo (Blood pressure in vivo) | effect on EFS-induced relaxation of PE-contracted corpus cavernosum (rabbit corpus cavernosum [1]; EBIO 50 μM, 2-32 Hz) | IC20 (rabbit corpus cavernosum [2]; Oryctolagus cuniculus, relaxation of rabbit corpus cavernosum) | relaxation of PE-contracted rabbit corpus cavernosum (rabbit corpus cavernosum [2]; PE (10 μM) contracted, EBIO 10 nM-1 mM cumulative, in vitro) | concentrations at which basal tone is suppressed (rabbit corpus cavernosum [2]; rabbit corpus cavernosum basal tone) | effect on SNP-induced relaxation of PE-contracted corpus cavernosum (rabbit corpus cavernosum [3]) | concentrations at which a relaxant effect on rabbit aorta occurs (rabbit aorta) | relaxant effect on rabbit aorta (rabbit aorta; PE (1 μM) or 80 mM K+ contracted, concentrations up to 100 μM) | EBIO-induced relaxation in the presence of L-NOARG (NOS inhibitor) (rabbit corpus cavernosum [4]; L-NOARG) | EBIO-induced relaxation in endothelium deprived corpus cavernosum (rabbit corpus cavernosum [4]; endothelium removed) |
| --- | --- | --- | --- | --- | --- | --- | --- | --- | --- | --- | --- | --- |
| charybdotoxin [ChTX] | caused a reduction; also recorded: sensitive | up to 30% | – | – | – | – | – | – | – | – | – | – |
| CCn1c(=O)[nH]c2ccccc21 [EBIO, 1-ethyl-2-benzimidazolinone] | – | – | no effect | greatly potentiates; also recorded: enhanced | ~50 µM | concentration-dependent relaxation; also recorded: concentration dependent relaxation | ≥ 10 µM | potentiates; also recorded: enhanced | ≥ 100 µM | no relaxant effect | still observed | still observed; also recorded: not affected |
